Source: ChEMBL document CHEMBL3992531, “Identification of new pyrrolo[2,3-d]pyrimidines as Src tyrosine kinase inhibitors in vitro active against Glioblastoma” (Eur J Med Chem, 2017)
Activity calls are given as the source filed them. The rule behind the calls is not given here.

Assays:
[1] = molecular target: Mast/stem cell growth factor receptor Kit (Homo sapiens, UniProt P10721); test: Inhibition of human recombinant GST-His6-tagged Kit C-terminal fragment (544 to 976 residues) using GGMEDIYFEFMGGKKK as substrate after 10 mins in presence of [gamma-33P]ATP by scintillation counting method
Mast/stem cell growth factor receptor Kit, sequence (P10721 whole entry, the tested form may be a part): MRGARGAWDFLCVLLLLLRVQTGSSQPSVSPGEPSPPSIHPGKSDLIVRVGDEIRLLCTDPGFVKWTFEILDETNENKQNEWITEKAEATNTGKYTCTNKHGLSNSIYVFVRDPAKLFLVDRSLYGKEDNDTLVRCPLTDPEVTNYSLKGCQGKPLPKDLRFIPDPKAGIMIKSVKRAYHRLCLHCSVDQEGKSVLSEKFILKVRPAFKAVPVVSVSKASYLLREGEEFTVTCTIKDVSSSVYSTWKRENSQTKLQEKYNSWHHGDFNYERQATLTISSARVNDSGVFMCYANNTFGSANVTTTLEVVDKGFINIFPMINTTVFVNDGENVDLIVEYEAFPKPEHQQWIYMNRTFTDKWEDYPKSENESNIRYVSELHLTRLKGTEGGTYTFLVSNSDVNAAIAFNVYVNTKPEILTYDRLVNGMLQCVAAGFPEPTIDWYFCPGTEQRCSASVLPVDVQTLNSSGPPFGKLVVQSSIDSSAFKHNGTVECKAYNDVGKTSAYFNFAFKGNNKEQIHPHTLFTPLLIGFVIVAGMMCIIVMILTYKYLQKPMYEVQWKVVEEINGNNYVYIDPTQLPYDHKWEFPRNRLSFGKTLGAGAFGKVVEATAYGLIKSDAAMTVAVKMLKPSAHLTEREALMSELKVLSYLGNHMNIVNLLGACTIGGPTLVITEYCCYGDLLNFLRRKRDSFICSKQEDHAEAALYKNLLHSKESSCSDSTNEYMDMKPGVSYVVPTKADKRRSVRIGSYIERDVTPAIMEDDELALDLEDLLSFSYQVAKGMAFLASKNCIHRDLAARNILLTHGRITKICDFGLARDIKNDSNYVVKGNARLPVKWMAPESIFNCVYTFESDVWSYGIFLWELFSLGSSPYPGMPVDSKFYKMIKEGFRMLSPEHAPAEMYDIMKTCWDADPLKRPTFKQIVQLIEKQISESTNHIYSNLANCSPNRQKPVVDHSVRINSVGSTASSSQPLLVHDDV

[2] = molecular target: Tyrosine-protein kinase ABL1 (Homo sapiens, UniProt P00519); test: Inhibition of Abl (unknown origin)
[3] = tested on: Tyrosine-protein kinase ABL1 (Homo sapiens), P00519 [T315I]; test: Inhibition of Abl T315I mutant (unknown origin)
[4] = tested on: U-87 MG; test: Cytotoxicity against human U87MG cells assessed as decrease in cell viability after 72 hrs by coulter counter analysis; format: functional, cell-based, U-87MG ATCC
[5] = molecular target: Tyrosine-protein kinase Fyn (Homo sapiens, UniProt P06241); test: Inhibition of human recombinant full length N-terminal His6-tagged Fyn expressed in baculovirus infected Sf21 cells using KVEKIGEGTYGVVYK as substrate after 10 mins in presence of [gamma-33P]ATP by scintillation counting method
Tyrosine-protein kinase Fyn, sequence (P06241 whole entry): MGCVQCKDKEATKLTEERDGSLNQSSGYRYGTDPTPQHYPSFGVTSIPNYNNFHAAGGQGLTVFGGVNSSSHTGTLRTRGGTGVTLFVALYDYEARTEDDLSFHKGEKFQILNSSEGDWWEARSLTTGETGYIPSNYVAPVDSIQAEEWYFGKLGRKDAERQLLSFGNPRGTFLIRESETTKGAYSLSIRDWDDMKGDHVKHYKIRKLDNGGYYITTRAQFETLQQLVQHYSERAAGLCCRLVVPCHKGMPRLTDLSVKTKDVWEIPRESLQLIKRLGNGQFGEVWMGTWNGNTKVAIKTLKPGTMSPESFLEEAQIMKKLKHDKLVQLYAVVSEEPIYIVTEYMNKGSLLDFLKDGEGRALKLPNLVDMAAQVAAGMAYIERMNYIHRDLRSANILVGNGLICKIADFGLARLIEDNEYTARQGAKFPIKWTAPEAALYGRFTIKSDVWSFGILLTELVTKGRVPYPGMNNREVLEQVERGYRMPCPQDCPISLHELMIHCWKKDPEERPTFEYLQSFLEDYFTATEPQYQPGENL

[6] = molecular target: T1, Receptor-type tyrosine-protein kinase FLT3 (Homo sapiens, UniProt P36888); test: Inhibition of Flt3 (unknown origin) using KVEKIGEGTYGVVYK as substrate after 10 mins in presence of [gamma-33P]ATP by scintillation counting method
T1 sequence (P36888 whole entry): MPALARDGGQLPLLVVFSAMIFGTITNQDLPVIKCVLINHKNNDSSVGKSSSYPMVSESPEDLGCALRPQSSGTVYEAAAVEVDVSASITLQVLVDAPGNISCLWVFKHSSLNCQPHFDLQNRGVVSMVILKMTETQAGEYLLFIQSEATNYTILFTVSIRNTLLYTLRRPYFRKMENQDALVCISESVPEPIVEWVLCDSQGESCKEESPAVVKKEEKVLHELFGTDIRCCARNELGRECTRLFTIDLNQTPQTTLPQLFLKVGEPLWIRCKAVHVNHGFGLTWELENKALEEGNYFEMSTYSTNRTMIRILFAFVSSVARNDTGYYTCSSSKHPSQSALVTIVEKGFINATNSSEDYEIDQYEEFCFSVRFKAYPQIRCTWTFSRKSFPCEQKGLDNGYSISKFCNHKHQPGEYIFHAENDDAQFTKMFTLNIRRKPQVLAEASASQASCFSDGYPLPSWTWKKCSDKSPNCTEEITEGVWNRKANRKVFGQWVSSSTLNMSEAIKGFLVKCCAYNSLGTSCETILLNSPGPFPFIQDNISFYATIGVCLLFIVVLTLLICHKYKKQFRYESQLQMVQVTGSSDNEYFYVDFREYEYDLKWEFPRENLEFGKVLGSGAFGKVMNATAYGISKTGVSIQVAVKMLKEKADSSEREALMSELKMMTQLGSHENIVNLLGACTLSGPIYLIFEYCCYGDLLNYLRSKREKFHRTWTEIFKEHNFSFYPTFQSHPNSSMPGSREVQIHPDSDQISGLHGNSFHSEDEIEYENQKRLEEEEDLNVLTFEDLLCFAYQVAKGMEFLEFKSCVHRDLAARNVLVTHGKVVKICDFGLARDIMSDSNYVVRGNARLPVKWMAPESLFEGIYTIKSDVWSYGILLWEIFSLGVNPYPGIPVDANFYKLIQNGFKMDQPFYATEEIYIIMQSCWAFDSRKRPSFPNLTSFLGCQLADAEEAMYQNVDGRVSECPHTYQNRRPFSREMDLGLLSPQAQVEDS

[7] = tested on: Epidermal growth factor receptor (Homo sapiens), P00533 [L861Q]; test: Inhibition of human recombinant N-terminal GST-tagged EGFR (696 residue-end) L861Q mutant expressed in baculovirus infected Sf21 cells using angiotensin-2 as substrate after 10 mins in presence of [gamma-33P]ATP by scintillation counting method
Epidermal growth factor receptor (Homo sapiens), P00533 [L861Q], sequence (P00533 whole entry L861Q): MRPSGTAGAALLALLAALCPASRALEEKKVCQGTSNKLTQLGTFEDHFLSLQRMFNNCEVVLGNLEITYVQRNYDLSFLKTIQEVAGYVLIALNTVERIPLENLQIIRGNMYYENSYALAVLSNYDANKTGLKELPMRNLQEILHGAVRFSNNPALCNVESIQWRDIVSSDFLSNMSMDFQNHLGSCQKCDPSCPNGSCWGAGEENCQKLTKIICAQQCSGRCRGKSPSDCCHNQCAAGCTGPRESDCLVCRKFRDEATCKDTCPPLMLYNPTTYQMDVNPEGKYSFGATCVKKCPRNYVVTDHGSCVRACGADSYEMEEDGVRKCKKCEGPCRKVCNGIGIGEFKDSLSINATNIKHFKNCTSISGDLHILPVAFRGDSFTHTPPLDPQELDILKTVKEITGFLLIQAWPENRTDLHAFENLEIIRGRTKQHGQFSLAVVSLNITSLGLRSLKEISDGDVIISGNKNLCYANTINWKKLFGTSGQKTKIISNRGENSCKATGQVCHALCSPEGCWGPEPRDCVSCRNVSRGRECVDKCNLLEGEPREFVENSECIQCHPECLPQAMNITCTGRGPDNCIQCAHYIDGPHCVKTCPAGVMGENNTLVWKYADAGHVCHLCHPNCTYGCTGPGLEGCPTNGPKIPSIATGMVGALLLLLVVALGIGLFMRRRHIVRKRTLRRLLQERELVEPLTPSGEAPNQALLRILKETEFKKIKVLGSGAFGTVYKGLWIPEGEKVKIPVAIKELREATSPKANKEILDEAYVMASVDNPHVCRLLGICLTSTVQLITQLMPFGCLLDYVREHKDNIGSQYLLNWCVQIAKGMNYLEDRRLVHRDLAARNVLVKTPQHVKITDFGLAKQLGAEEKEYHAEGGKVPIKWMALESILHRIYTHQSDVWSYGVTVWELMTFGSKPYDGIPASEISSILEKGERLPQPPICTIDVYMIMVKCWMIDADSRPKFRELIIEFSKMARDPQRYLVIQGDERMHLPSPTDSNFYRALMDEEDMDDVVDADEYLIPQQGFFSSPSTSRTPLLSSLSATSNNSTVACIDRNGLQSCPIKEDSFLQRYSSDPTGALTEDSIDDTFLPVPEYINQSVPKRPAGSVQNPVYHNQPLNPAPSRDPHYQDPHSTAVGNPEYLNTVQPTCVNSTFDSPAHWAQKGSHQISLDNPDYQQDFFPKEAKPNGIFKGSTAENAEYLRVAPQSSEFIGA

[8] = molecular target: Proto-oncogene tyrosine-protein kinase Src (Homo sapiens, UniProt P12931); test: Inhibition of human recombinant full length N-terminal His6-tagged Src expressed in Sf21 cells using KVEKIGEGTYGVVYK as substrate after 10 mins in presence of [gamma-33P]ATP by scintillation counting method
Proto-oncogene tyrosine-protein kinase Src, sequence (P12931 2-536 limits assumed): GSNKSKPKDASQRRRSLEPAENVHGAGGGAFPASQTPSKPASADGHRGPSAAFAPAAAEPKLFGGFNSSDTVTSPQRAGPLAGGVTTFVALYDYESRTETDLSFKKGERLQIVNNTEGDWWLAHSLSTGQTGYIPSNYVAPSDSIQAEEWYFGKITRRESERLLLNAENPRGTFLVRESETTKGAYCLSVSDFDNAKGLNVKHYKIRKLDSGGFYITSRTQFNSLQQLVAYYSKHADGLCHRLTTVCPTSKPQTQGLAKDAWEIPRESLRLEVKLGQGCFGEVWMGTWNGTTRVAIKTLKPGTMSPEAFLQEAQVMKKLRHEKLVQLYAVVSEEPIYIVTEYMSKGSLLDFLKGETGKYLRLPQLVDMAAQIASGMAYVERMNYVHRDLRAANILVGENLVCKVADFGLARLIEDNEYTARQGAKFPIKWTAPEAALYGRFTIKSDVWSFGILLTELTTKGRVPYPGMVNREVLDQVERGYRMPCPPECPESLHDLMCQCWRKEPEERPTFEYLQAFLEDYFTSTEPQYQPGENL

| Compound | IC50 [1] | IC50 [2] | inhibition [3] | IC50 [4] [µM] | IC50 ([5]; read-out: IC50) [µM] | IC50 ([6]; read-out: IC50) [µM] | inhibition [7] | Ki [8] [nM] | IC50 [6] | IC50 [5] | IC50 ([2]; read-out: IC50) [µM] |
| --- | --- | --- | --- | --- | --- | --- | --- | --- | --- | --- | --- |
| CSc1nc(NCc2ccccc2)c2ccn(CC(Cl)c3ccccc3)c2n1 (stereo not given) | Not Active | Not Active | inactive | 50.7 | 88.6 | 68 | inactive | 6000 | – | – | – |
| CSc1nc(Nc2cccc(Cl)c2)c2ccn(CC(Cl)c3ccccc3)c2n1 (stereo not given) | Not Active | Not Active | inactive | 143 | 58.2 | 55 | inactive | 700 | – | – | – |
| CSc1nc(N2CCCC2)c2ccn(Cc3ccc(F)cc3)c2n1 | Not Active | Not Active | inactive | 51.8 | 76 | 64 | inactive | 2000 | – | – | – |
| CSc1nc(Nc2ccccc2)c2ccn(CC(Cl)c3ccccc3)c2n1 (stereo not given) | Not Active | Not Active | inactive | 27.4 | 62 | 72 | inactive | 1500 | – | – | – |
| CSc1nc(N2CCCCC2)c2ccn(Cc3ccc(F)cc3)c2n1 | Not Active | Not Active | inactive | 50.7 | 57.1 | 61 | inactive | 2500 | – | – | – |
| CSc1nc(NCCc2ccccc2)c2ccn(Cc3ccc(F)cc3)c2n1 | Not Active | Not Active | inactive | 13.3 | 30.8 | – | inactive | 800 | Not Active | – | – |
| CCCCNc1nc(SC)nc2c1ccn2Cc1ccc(F)cc1 | Not Active | Not Active | inactive | 20.7 | – | – | inactive | 3000 | Not Active | Not Active | – |
| CSc1nc(NCCc2ccc(Cl)cc2)c2ccn(Cc3ccc(F)cc3)c2n1 | Not Active | Not Active | inactive | 46.1 | 70.4 | 76 | inactive | 5000 | – | – | – |
| CSc1nc(NCc2ccccc2)c2ccn(Cc3ccc(F)cc3)c2n1 | Not Active | – | inactive | 7.1 | 43.2 | 60 | inactive | 500 | – | – | 70 |
| CSc1nc(N2CCOCC2)c2ccn(Cc3ccc(F)cc3)c2n1 | Not Active | Not Active | inactive | 20.3 | – | 61 | inactive | 4700 | – | Not Active | – |
